This note sets out measurements from patent publication US7855214B2, “Fused cyclic systems useful as inhibitors of TEC family protein kinases” (Vertex Pharmaceuticals Incorporated, priority 2004, dated 2010).

Bounds are passed on as bounds.

The target of the experiment is T1, Itk (Homo sapiens, UniProt Q08881).
T1 sequence (Q08881 1-620): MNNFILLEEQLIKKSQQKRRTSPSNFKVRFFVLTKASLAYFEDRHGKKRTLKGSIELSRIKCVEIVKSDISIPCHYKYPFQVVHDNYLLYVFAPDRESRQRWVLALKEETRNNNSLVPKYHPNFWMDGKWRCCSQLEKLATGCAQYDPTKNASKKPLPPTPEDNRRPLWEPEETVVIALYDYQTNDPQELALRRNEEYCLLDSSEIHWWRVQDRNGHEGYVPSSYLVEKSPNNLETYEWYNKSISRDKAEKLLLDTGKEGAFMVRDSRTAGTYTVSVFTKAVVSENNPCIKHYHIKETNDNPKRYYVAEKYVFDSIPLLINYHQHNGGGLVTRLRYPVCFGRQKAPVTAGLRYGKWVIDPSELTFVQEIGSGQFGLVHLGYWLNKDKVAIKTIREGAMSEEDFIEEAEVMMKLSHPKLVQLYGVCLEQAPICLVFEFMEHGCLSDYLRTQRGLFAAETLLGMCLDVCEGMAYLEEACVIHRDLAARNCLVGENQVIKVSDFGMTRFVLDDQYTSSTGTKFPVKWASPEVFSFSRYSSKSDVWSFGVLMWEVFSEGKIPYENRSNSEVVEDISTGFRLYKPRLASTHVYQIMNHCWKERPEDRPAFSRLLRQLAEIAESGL
The experiment in a line: ITK Inhibition Assay (AlphaScreen). The experiment is classed as biochemical. Particulars: Ki(app); 100 μM ATP, 2 μM biotinylated SAM68 peptide, 30 nM Itk, 25° C. As to the method:
Compounds were screened for their ability to inhibit Itk using an AlphaScreen™ phosphotyrosine assay at Vertex Pharmaceuticals. Assays were carried out in a mixture of 20 mM MOPS (pH 7.0), 10 mM MgCl2, 0.1% BSA and 1 mM DTT. Final substrate concentrations in the assay were 100 μM ATP (Sigma Chemicals) and 2 μM peptide (Biotinylated SAM68 Δ332-443). Assays were carried out at 25° C. and in the presence of Itk (30 nM). An assay stock buffer solution was prepared containing all of the reagents listed above, with the exception of ATP and the test compound of interest. 25 μL of the stock solution was placed in each well of a 96 well plate followed by 1 μL of DMSO containing serial dilutions of the test compound (typically starting from a final concentration of 15 μM) in duplicate (final DMSO concentration 2%). The plate was preincubated for 10 minutes at 25° C. and the reaction initiated by addition of 25 μL ATP (final concentration 100 μM). Background counts were determined by the addition of 5 μL 500 mM EDTA to control wells containing assay stock buffer and DMSO prior to initiation with ATP.
The reaction was stopped after 30 minutes by diluting the reaction 225-fold into MOPS buffer (20 mM MOPS (pH 7.0), 1 mM DTT, 10 mM MgCl2, 0.1% BSA) containing 50 mM EDTA to bring the final concentration of Biotin-SAM68 to 9 nM.
AlphaScreen™ reagents were prepared according to the manufacturers instructions (AlphaScreen™ phosphotyrosine (P-Tyr-100) assay kit, PerkinElmer catalogue number 6760620C). Under subdued lighting, 20 μL of AlphaScreen™ reagents were placed in each well of a white half area 96 well plate (Corning Inc.—COSTAR 3693) with 30 μL of the stopped, diluted kinase reactions. Plates were incubated in the dark for 60 minutes prior to reading on a Fusion Alpha plate reader (PerkinElmer).
After removing mean background values for all of the data points, Ki(app) data were calculated from non-linear regression analysis using the Prism software package (GraphPad Prism version 3.0cx for Macintosh, GraphPad Software, San Diego Calif., USA).
A general note: Alpha assays give light when donor and acceptor beads are brought close together.
In the case of `Nc1ccc2c(=O)n3c(nc(Nc4cc(C5CC5)[nH]n4)c4ccccc43)nc2c1` [Compound I-1], the Ki is less than 1000 nM. On to `Cc1cc(Nc2nc3nc4cc(N)ccc4c(=O)n3c3ccccc23)[nH]n1` [Compound I-3], for which the Ki was less than 1000 nM.

`O=c1c2ccccc2nc2nc(Nc3cc(C4CC4)n[nH]3)c3ccccc3n12` [Compound I-2] gave a Ki of less than 1000 nM.

`CCCc1cc(Nc2nc3nc4ccccc4c(=O)n3c3ccccc23)n[nH]1` [Compound I-13] gave a Ki of less than 1000 nM.

`CC(C)c1cc(Nc2nc3nc4ccccc4c(=O)n3c3ccccc23)[nH]n1` [Compound I-7] displayed a Ki of less than 1000 nM. The result for `COc1cc2nc3nc(Nc4cc(C5CC5)n[nH]4)c4ccccc4n3c(=O)c2cc1OC` [Compound I-10] reads less than 1000 nM; that for `O=c1c2ccccc2nc2nc(Nc3cc(C4CC4)n[nH]3)c3c(n12)CCC3` [Compound I-15], less than 1000 nM. The compound `O=c1c2ccccc2nc2nc(Nc3cc(CCCO)[nH]n3)c3ccccc3n12` [Compound I-20] registered a Ki of less than 1000 nM. Regarding `O=c1c2ccccc2nc2nc(Nc3cc(C4CCCC4)n[nH]3)c3ccccc3n12` [Compound I-9], the Ki was less than 1000 nM.

Compound `COc1cc2nc3nc(Nc4cc(C5CCCC5)n[nH]4)c4ccccc4n3c(=O)c2cc1OC` [Compound I-11] showed a Ki of less than 1000 nM.

Compound `CCOC(=O)Nc1ccc2c(=O)n3c(nc(Nc4cc(C5CC5)n[nH]4)c4ccccc43)nc2c1` [Compound I-16] registered a Ki of less than 1000 nM. Regarding `O=c1c2ccccc2nc2nc(Nc3cc(C4CC4)n[nH]3)c3c(n12)CCCC3` [Compound I-17], the Ki was less than 1000 nM. The result for `COc1cc2nc3nc(Nc4cc(C(C)C)n[nH]4)c4ccccc4n3c(=O)c2cc1OC` [Compound I-14] reads less than 1000 nM; that for `COCCCc1cc(Nc2nc3nc4ccccc4c(=O)n3c3ccccc23)n[nH]1` [Compound I-21], less than 1000 nM.
